Experimental data published in patent US11225505B2, “Antimicrobial polymyxin derivative compounds” (MONASH UNIVERSITY, priority 2015, dated 2022).
In brackets after ≈: the same amount, converted by molar mass. Read-outs that look alike come from different tables or passages of the source. Where a SMILES comes first, the peptide text is derived from it. Bridges are numbered along the chain shown (N, C = ends). [ ]: non-standard residue; d: D form. The star is where a group is joined. Isoxazole(3-CO,5-Ph) = O=C(c1cc(-c2ccccc2)on1)*; X66 = O=C(c1c[nH]c(-c2ccccc2)n1)*; X64 = O=C(c1noc(-c2ccccc2)n1)*; X34 = O=C(c1cc(Br)c(Br)o1)*; Dab = NCC[C@H](N)C(=O)O; Abu = CC[C@H](N)C(=O)O; Dap = NC[C@H](N)C(=O)O

Columns and labels:
Format in all cases: cell-based
[1] = tested on: Pseudomonas aeruginosa FADDI-PA01
Summary of the method: (§1)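 In cation-adjusted Mueller-Hinton broth, each lipopeptide (TFA salt) was titrated against the bacteria by microdilution and the minimum inhibitory concentration recorded per CLSI M100-S24; polymyxin B sulphate ran in parallel.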

[2] = tested on: Pseudomonas aeruginosa FADDI-PA038
Summary of the method: as §1

[3] = tested on: Acinetobacter baumannii FADDI-AB034
Summary of the method: as §1

[4] = tested on: Klebsiella pneumoniae FADDI-KP032
Summary of the method: as §1

[5] = tested on: Klebsiella pneumoniae Kp BM1
Summary of the method: (§2)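 Following CLSI procedure M100-S24, minimum inhibitory concentrations of trifluoroacetate lipopeptides are measured in cation-adjusted Mueller-Hinton medium by broth microdilution, alongside a polymyxin B sulphate control.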

[6] = tested on: Acinetobacter baumannii ATCC 17978
Summary of the method: as §1

[7] = tested on: Enterobacter cloacae FADDI-EC006
Summary of the method: as §1

[8] = tested on: Enterobacter cloacae FADDI-EC001
Summary of the method: as §2

[9] = tested on: Klebsiella pneumoniae FADDI-KP022
Summary of the method: as §1

[10] = tested on: Pseudomonas aeruginosa ATCC 27853
Summary of the method: as §1

[11] = tested on: Enterobacter cloacae FADDI-EC003
Summary of the method: as §1

[12] = tested on: Pseudomonas aeruginosa FADDI-PA022
Summary of the method: as §1

[13] = tested on: Acinetobacter baumannii FADDI-AB030; assay: microbe, parasite or virus in culture
Summary of the method: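 Lipopeptide TFA salts tested against the multidrug-resistant clinical isolate by CLSI (M100-S24) broth microdilution in cation-adjusted Mueller-Hinton broth, with polymyxin B sulphate as control; MIC read.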

SMILES | Minimum inhibitory concentration ([1]; FADDI-) [µg/mL] | Minimum inhibitory concentration ([2]; FADDI-PA038) [µg/mL] | Minimum inhibitory concentration ([3]; FADDI-AB034) [µg/mL] | Minimum inhibitory concentration ([4]; FADDI-KP032) [µg/mL] | Minimum inhibitory concentration ([5]; Kp BM1) [µg/mL] | Minimum inhibitory concentration ([6]; ATCC 17978) [µg/mL] | Minimum inhibitory concentration ([7]; FADDI-EC006) [µg/mL] | Minimum inhibitory concentration ([8]; FADDI-EC001) [µg/mL] | Minimum inhibitory concentration ([9]; FADDI-KP022) [µg/mL] | Minimum inhibitory concentration ([10]; ATCC 27853) [µg/mL] | Minimum inhibitory concentration ([11]; FADDI-EC003) [µg/mL] | Minimum inhibitory concentration ([12]; FADDI-PA022) [µg/mL] | Minimum inhibitory concentration ([13]; FADDI-AB030) [µg/mL] | further results
CC[C@@H]1NC(=O)[C@@H](CC(C)C)NC(=O)[C@H](CCN)NC(=O)[C@@H](NC(=O)[C@H](CN)NC(=O)[C@@H](NC(=O)[C@H](CCN)NC(=O)c2cc(Br)c(Br)o2)[C@@H](C)O)CCNC(=O)[C@H]([C@@H](C)O)NC(=O)[C@H](CCN)NC(=O)[C@H](CCN)NC1=O [Compound 79] (X34-[Dab]T[Dap][Dab][Dab][dL][Abu][Dab][Dab]T; lactam 4-C) | 1 (≈ 0.807 µM) | 0.5 (≈ 0.404 µM) | 0.5 (≈ 0.404 µM) | <0.125 | 0.25 (≈ 0.202 µM) | 0.5 (≈ 0.404 µM) | 0.25 (≈ 0.202 µM) | <0.125 | <0.125 | 0.25 (≈ 0.202 µM) | <0.125 | 0.25 (≈ 0.202 µM) | 0.25 (≈ 0.202 µM) | –
CC[C@@H]1NC(=O)[C@@H](CC(C)C)NC(=O)[C@H](CCN)NC(=O)[C@@H](NC(=O)[C@H](CN)NC(=O)[C@@H](NC(=O)[C@H](CCN)NC(=O)c2cc(-c3ccccc3)on2)[C@@H](C)O)CCNC(=O)[C@H]([C@@H](C)O)NC(=O)[C@H](CCN)NC(=O)[C@H](CCN)NC1=O [Compound 80] ({Isoxazole(3-CO,5-Ph)}-[Dab]T[Dap][Dab][Dab][dL][Abu][Dab][Dab]T; lactam 4-C) | 0.5 (≈ 0.432 µM) | 0.5 (≈ 0.432 µM) | 0.5 (≈ 0.432 µM) | 0.25 (≈ 0.216 µM) | 0.25 (≈ 0.216 µM) | 0.5 (≈ 0.432 µM) | 0.25 (≈ 0.216 µM) | 0.25 (≈ 0.216 µM) | <0.125 | 0.5 (≈ 0.432 µM) | 0.25 (≈ 0.216 µM) | 0.5 (≈ 0.432 µM) | 0.5 (≈ 0.432 µM) | –
CC[C@@H]1NC(=O)[C@@H](CC(C)C)NC(=O)[C@H](CCN)NC(=O)[C@@H](NC(=O)[C@H](CN)NC(=O)[C@@H](NC(=O)[C@H](CCN)NC(=O)c2noc(-c3ccccc3)n2)[C@@H](C)O)CCNC(=O)[C@H]([C@@H](C)O)NC(=O)[C@H](CCN)NC(=O)[C@H](CCN)NC1=O [Compound 81] (X64-[Dab]T[Dap][Dab][Dab][dL][Abu][Dab][Dab]T; lactam 4-C) | 0.5 (≈ 0.431 µM) | 1 (≈ 0.863 µM) | 4 (≈ 3.45 µM) | 0.5 (≈ 0.431 µM) | 0.5 (≈ 0.431 µM) | 2 (≈ 1.73 µM) | 0.25 (≈ 0.216 µM) | <0.125 | <0.125 | 1 (≈ 0.863 µM) | <0.125 | 0.5 (≈ 0.431 µM) | 2 (≈ 1.73 µM) | –
CC[C@@H]1NC(=O)[C@@H](CC(C)C)NC(=O)[C@H](CCN)NC(=O)[C@@H](NC(=O)[C@H](CN)NC(=O)[C@@H](NC(=O)[C@H](CCN)NC(=O)c2c[nH]c(-c3ccccc3)n2)[C@@H](C)O)CCNC(=O)[C@H]([C@@H](C)O)NC(=O)[C@H](CCN)NC(=O)[C@H](CCN)NC1=O [Compound 82] (X66-[Dab]T[Dap][Dab][Dab][dL][Abu][Dab][Dab]T; lactam 4-C) | – | – | – | – | – | – | – | – | – | – | – | – | – | Minimum inhibitory concentration ([1]; P. aeruginosa FADDI-PA01, CAMHB broth microdilution): 0.5 µg/mL (≈ 0.432 µM); Minimum inhibitory concentration ([2]; P. aeruginosa FADDI-PA038, CAMHB broth microdilution): 2 µg/mL (≈ 1.73 µM); Minimum inhibitory concentration ([3]; A. baumannii FADDI-AB034, CAMHB broth microdilution): 8 µg/mL (≈ 6.91 µM); Minimum inhibitory concentration ([4]; K. pneumoniae FADDI-KP032, CAMHB broth microdilution): 0.5 µg/mL (≈ 0.432 µM); Minimum inhibitory concentration ([5]; K. pneumoniae Kp BM1, CAMHB broth microdilution): 1 µg/mL (≈ 0.864 µM); Minimum inhibitory concentration ([6]; A. baumannii ATCC 17978, CAMHB broth microdilution): 2 µg/mL (≈ 1.73 µM); Minimum inhibitory concentration ([7]; E. cloacae FADDI-EC006, CAMHB broth microdilution): 0.5 µg/mL (≈ 0.432 µM); Minimum inhibitory concentration ([8]; E. cloacae FADDI-EC001, CAMHB broth microdilution): 0.25 µg/mL (≈ 0.216 µM); Minimum inhibitory concentration ([9]; K. pneumoniae FADDI-KP022, CAMHB broth microdilution): <0.125 µg/mL; Minimum inhibitory concentration ([10]; P. aeruginosa ATCC 27853, CAMHB broth microdilution): 0.5 µg/mL (≈ 0.432 µM); Minimum inhibitory concentration ([11]; E. cloacae FADDI-EC003, CAMHB broth microdilution): 0.25 µg/mL (≈ 0.216 µM); Minimum inhibitory concentration ([12]; P. aeruginosa FADDI-PA022, CAMHB broth microdilution): 0.5 µg/mL (≈ 0.432 µM); Minimum inhibitory concentration ([13]; A. baumannii FADDI-AB030, CAMHB broth microdilution): 4 µg/mL (≈ 3.46 µM)
